Data published in BigSolDB 2.1.

Row | SMILES | solubility (mole fraction) (in ethanol, 288.15 K) | solubility (mole fraction) (in ethanol, 298.15 K) | solubility (mole fraction) (in ethanol, 308.15 K) | solubility (mole fraction) (in ethanol, 318.15 K) | solubility (mole fraction) (in isopropanol, 288.15 K) | solubility (mole fraction) (in isopropanol, 298.15 K) | solubility (mole fraction) (in isopropanol, 308.15 K) | solubility (mole fraction) (in isopropanol, 318.15 K) | solubility (mole fraction) (in n-propanol, 288.15 K) | solubility (mole fraction) (in n-propanol, 298.15 K) | solubility (mole fraction) (in n-propanol, 308.15 K) | solubility (mole fraction) (in n-propanol, 318.15 K)
1 | CCOC(=O)c1ccc(O)cc1 | 0.123 | 0.163 | 0.201 | 0.257 | 0.157 | 0.182 | 0.239 | 0.282 | 0.127 | 0.174 | 0.214 | 0.251
2 | CCCCOC(=O)c1ccc(O)cc1 | 0.287 | 0.361 | 0.433 | 0.524 | 0.293 | 0.339 | 0.415 | 0.512 | 0.289 | 0.352 | 0.448 | 0.522
